Reference: ChEMBL document CHEMBL1201862, “PubChem BioAssay data set” (2004)
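Dose response: 5 concentrations. Exposure: 48 h. Format: 96-well plates. Endpoint: linear interpolation; highest concentration if not reached. GI50 = concentration required for 50% inhibition of growth.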 Calls of active or inactive are those of the source. Rule as the data show it: active = GI50 up to about 1.1 µM and inactive = higher.

Experiments:
Test in all cases: inhibition of tumour cell growth, NCI panel, 48 h
786-0 = system: 786-0
A498 = system: A498
CAKI-1 = system: CAKI-1
CCRF-CEM = system: CCRF-CEM
COLO 205 = system: COLO 205
EKVX = system: EKVX
HCT-15 = system: HCT-15
HOP-62 = system: HOP-62
HOP-92 = system: HOP-92
IGROV-1 = system: IGROV-1
MOLT-4 = system: MOLT-4
NCI-H226 = system: NCI-H226
NCI-H460 = system: NCI-H460
OVCAR-5 = system: OVCAR-5
OVCAR-8 = system: OVCAR-8
RXF 393 = system: RXF 393
SN12C = system: SN12C
SNB-19 = system: SNB-19
SR = system: SR
TK-10 = system: TK-10

Compound	GI50 (786-0)	GI50 (A498)	GI50 (CAKI-1)	GI50 (CCRF-CEM)	GI50 (COLO 205)	GI50 (EKVX)	GI50 (HCT-15) [µM]	GI50 (HOP-62)	GI50 (HOP-92)	GI50 (IGROV-1)	GI50 (MOLT-4)	GI50 (NCI-H226)	GI50 (NCI-H460)	GI50 (OVCAR-5)	GI50 (OVCAR-8)	GI50 (RXF 393)	GI50 (SN12C)	GI50 (SNB-19)	GI50 (SR)	GI50 (TK-10)
CCOC(=O)c1cccc(/N=N/c2ncc(/C=C/C(=O)OC)[nH]2)c1	14.6 µM (inactive)	20.8 µM (inactive)	14.5 µM (inactive)	6 µM (inactive)	18.8 µM (inactive)	27.7 µM (inactive)	9.59	16.3 µM (inactive)	32.1 µM (inactive)	20.6 µM (inactive)	6.97 µM (inactive)	36.1 µM (inactive)	14.3 µM (inactive)	55 µM (inactive)	17.3 µM (inactive)	29.9 µM (inactive)	7.03 µM (inactive)	34.4 µM (inactive)	4.12 µM (inactive)	26.5 µM (inactive)
CCC1([N+](=O)[O-])CC2C=CC1C2 (stereo not given)	> 100 µM (inactive)	> 100 µM (inactive)	> 100 µM (inactive)	> 100 µM (inactive)	> 100 µM (inactive)	> 100 µM (inactive)	> 100	> 100 µM (inactive)	62.7 µM (inactive)	> 100 µM (inactive)	> 100 µM (inactive)	> 100 µM (inactive)	> 100 µM (inactive)	> 100 µM (inactive)	> 100 µM (inactive)	> 100 µM (inactive)	> 100 µM (inactive)	> 100 µM (inactive)	> 100 µM (inactive)	> 100 µM (inactive)
Fc1ccc(F)c(C2SCc3nc4ccccc4n32)c1 (stereo not given)	> 100 µM (inactive)	43.8 µM (inactive)	95.5 µM (inactive)	47.6 µM (inactive)	> 100 µM (inactive)	57.9 µM (inactive)	71.1	> 100 µM (inactive)	28.5 µM (inactive)	> 100 µM (inactive)	27.2 µM (inactive)	> 100 µM (inactive)	83 µM (inactive)	> 100 µM (inactive)	> 100 µM (inactive)	67.6 µM (inactive)	> 100 µM (inactive)	> 100 µM (inactive)	43.9 µM (inactive)	34.3 µM (inactive)
CC(C)(C)O/N=C/c1cc(NC(=S)c2ccccc2)ccc1Cl	14.3 µM (inactive)	13.6 µM (inactive)	29.3 µM (inactive)	23 µM (inactive)	14.3 µM (inactive)	15.2 µM (inactive)	15.1	13.7 µM (inactive)	14.9 µM (inactive)	12.1 µM (inactive)	8.71 µM (inactive)	16.8 µM (inactive)	6.89 µM (inactive)	23.8 µM (inactive)	17.9 µM (inactive)	12.3 µM (inactive)	12.2 µM (inactive)	22.4 µM (inactive)	15.1 µM (inactive)	12.2 µM (inactive)
CN(C)c1c(Cl)c(=O)oc2c1ccc1nc(-c3ccccc3)sc12	> 100 µM (inactive)	> 100 µM (inactive)	> 100 µM (inactive)	> 100 µM (inactive)	> 100 µM (inactive)	> 100 µM (inactive)	> 100	98.9 µM (inactive)	> 100 µM (inactive)	> 100 µM (inactive)	> 100 µM (inactive)	> 100 µM (inactive)	> 100 µM (inactive)	> 100 µM (inactive)	> 100 µM (inactive)	55.3 µM (inactive)	> 100 µM (inactive)	> 100 µM (inactive)	> 100 µM (inactive)	> 100 µM (inactive)
CC(C)(C)C1CCC2c3c([nH]c4ccccc34)C3C(=O)N(c4ccccc4[N+](=O)[O-])C(=O)C3C2C1 (stereo not given)	12.7 µM (inactive)	15.5 µM (inactive)	5.66 µM (inactive)	12.6 µM (inactive)	10.5 µM (inactive)	11.4 µM (inactive)	11.2	4.53 µM (inactive)	1.71 µM (inactive)	16.7 µM (inactive)	> 10 µM (inactive)	20.2 µM (inactive)	4.25 µM (inactive)	16.9 µM (inactive)	16.6 µM (inactive)	6.65 µM (inactive)	14.6 µM (inactive)	19.3 µM (inactive)	9.64 µM (inactive)	17.7 µM (inactive)
O/N=C1\CC2(N3CCOCC3)CCC1(c1ccccc1)CC2	> 100 µM (inactive)	> 100 µM (inactive)	> 100 µM (inactive)	> 100 µM (inactive)	> 100 µM (inactive)	> 100 µM (inactive)	> 100	> 100 µM (inactive)	> 100 µM (inactive)	> 100 µM (inactive)	> 100 µM (inactive)	> 100 µM (inactive)	> 100 µM (inactive)	> 100 µM (inactive)	> 100 µM (inactive)	> 100 µM (inactive)	> 100 µM (inactive)	> 100 µM (inactive)	> 100 µM (inactive)	> 100 µM (inactive)
COC(=O)c1ccccc1C1CN=NC12Cc1cccc(C)c1C2=O (stereo not given)	90.4 µM (inactive)	54.6 µM (inactive)	46.1 µM (inactive)	52.7 µM (inactive)	> 10 µM (inactive)	65.6 µM (inactive)	46.5	45.2 µM (inactive)	25.5 µM (inactive)	59.8 µM (inactive)	32.8 µM (inactive)	49.7 µM (inactive)	88.1 µM (inactive)	> 100 µM (inactive)	42.4 µM (inactive)	11.5 µM (inactive)	36.1 µM (inactive)	70 µM (inactive)	94.4 µM (inactive)	65.9 µM (inactive)
CC(=O)C1=C(O)C(N)C2Cc3c(c(O)c4c(O)c(C)ccc4c3C)C(=O)C2(O)C1=O (stereo not given)	2.58 µM (inactive)	2.8 µM (inactive)	1.52 µM (inactive)	3.24 µM (inactive)	1.64 µM (inactive)	1.89 µM (inactive)	0.774	1.58 µM (inactive)	1.6 µM (inactive)	2.96 µM (inactive)	1.71 µM (inactive)	1.56 µM (inactive)	1.3 µM (inactive)	4.46 µM (inactive)	1.39 µM (inactive)	4.43 µM (inactive)	1.37 µM (inactive)	2.34 µM (inactive)	1.64 µM (inactive)	1.93 µM (inactive)
O=C(CCc1cc(O)cc(O)c1)NCCc1cc(OCc2ccccc2)cc(OCc2ccccc2)c1	18.7 µM (inactive)	21.2 µM (inactive)	19.2 µM (inactive)	7.8 µM (inactive)	20.5 µM (inactive)	7.24 µM (inactive)	14.7	16.4 µM (inactive)	17.1 µM (inactive)	15.5 µM (inactive)	5.35 µM (inactive)	15.9 µM (inactive)	4.68 µM (inactive)	20.2 µM (inactive)	13.7 µM (inactive)	8.55 µM (inactive)	14.9 µM (inactive)	2.41 µM (inactive)	4.83 µM (inactive)	21.4 µM (inactive)
COc1ccc(CCNC2=CC(=O)c3ncccc3C2=O)cc1OC	3.31 µM (inactive)	1.82 µM (inactive)	1.71 µM (inactive)	5.9 µM (inactive)	1.79 µM (inactive)	5.5 µM (inactive)	0.918	1.89 µM (inactive)	8.95 µM (inactive)	1.55 µM (inactive)	5.05 µM (inactive)	1.42 µM (inactive)	0.394 µM (active)	2.7 µM (inactive)	2.54 µM (inactive)	3.9 µM (inactive)	0.973 µM (active)	1.86 µM (inactive)	4.24 µM (inactive)	24.3 µM (inactive)
CC(C)[Si](OCC/C=C/C1CCC(=O)C1C(O)C1CCCCC1)(C(C)C)C(C)C (stereo not given)	15.9 µM (inactive)	18.3 µM (inactive)	14.7 µM (inactive)	19.5 µM (inactive)	16.3 µM (inactive)	15.5 µM (inactive)	16.3	16.9 µM (inactive)	11.8 µM (inactive)	15.1 µM (inactive)	12.5 µM (inactive)	16 µM (inactive)	17 µM (inactive)	18.2 µM (inactive)	15.2 µM (inactive)	8.89 µM (inactive)	18.2 µM (inactive)	17.7 µM (inactive)	4.29 µM (inactive)	17.9 µM (inactive)
COc1ccc(Nc2nc(N)c(C(=O)c3ccco3)s2)cc1	> 40 µM (inactive)	13.2 µM (inactive)	50 µM (inactive)	5.47 µM (inactive)	13.4 µM (inactive)	> 58.3 µM (inactive)	6.58	> 63.8 µM (inactive)	> 92.7 µM (inactive)	10.7 µM (inactive)	3.61 µM (inactive)	33.9 µM (inactive)	13.7 µM (inactive)	> 83.2 µM (inactive)	> 100 µM (inactive)	31.8 µM (inactive)	> 70.8 µM (inactive)	> 56.5 µM (inactive)	0.955 µM (active)	10.8 µM (inactive)
